This is an account of results in US20130157261A1, “Compositions and Methods for Quantitative Histology, Calibration of Images in Fluorescence Microscopy, and ddTUNEL Analyses” (The Methodist Hospital Research Institute, priority 2011, published 2013).

One assay deals with Caspase-3. Conditions: NHA, 14.4 μM thimerosal, 1 hr, vs control. The procedure: (§1) Fixed cells were permeabilized using 1×PBS with 0.1% Triton X-100®. Hydrazine reactive aldehyde/ketones were labeled using 225 μM Biotin-XX hydrazide (Hensley, 2009) (Cat. No. B2600) and visualized using Texas Red-Avidin (Cat. No. A820). The activity of Caspase-3 in fixed, 0.1% Triton-permeabilized cells was measured using the R110-EnzChek® Assay Kit (Molecular Probes, Cat. No. E13184), and incubating cells for 1 h at 37° C. (Scott et al., 2003).
(§2) 3% FCS was present in the NHA medium throughout the time-course. To generate the time-course shown in FIG. 17A and FIG. 17B, NHA were exposed to Mitotracker, H2DCFAM and Hoechst at t=0.

Assay [1] concerns normal human astrocytes (NHA).
From the text: as §2

The test system of assay [2] is normal human astrocytes (NHA). The procedure:
(§3) Normal human astrocytes (NHA) were obtained from Lonza (Walkersville, Md., USA) and grown subject to their recommendations. NHA were grown to confluency in Astrocyte Cell Basal Medium supplemented with 3% FBS, Glutamine, Insulin, fhEGF, GA-1000 and ascorbic acid in 16-well Lab-Tek slide chambers (Nalge Nunc, Rochester, N.Y., USA), in a total volume of 240 μL.
NHA were incubated for 1 hour with probes before fixation. Fixation in buffered paraformaldehyde (PFA) was performed in two stages. Firstly, a […] of ice-cold 8% PFA was added to each well, then gently aspirated and the wells were twice washed with ice-cold 2% PFA and then allowed to completely fix at 4° C. After fixation, cells were washed twice in 1×PBS (Thermo Fisher Scientific, Rockford, Ill., USA). The tanks were then removed from the slides, the well area covered with Fluoromount-G (SouthernBiotech, Ill., USA), cover-slipped and sealed with nail varnish.
DNA was visualized using 1 μM Hoechst 33258 (Cat. No. H1398), mitochondrial membrane potential with 500 nM Mitotracker® Red (Dagda et al., 2009) (Cat. No. M22425), hydrogen peroxide using 5 μM H2DCFAM (Whiteman et al., 2009; Setsukinai et al., 2003) (Cat. No. D399), mitochondrial superoxide generation with 5 μM MitoSOX™ Red (Abramov et al., 2010) (Cat. No. M36008), HO. was assayed using 5 μM hydroxyphenyl fluorescein (Setsukinai et al., 2003) (HPF) (Cat. No. H36004), with reagents obtained from Molecular Probes (Eugene, Oreg., USA).
as §2
The source holds these as a separate data set.

Assay [3] has as its system normal human astrocytes (NHA). Conditions: 14.4 μM thimerosal.
Procedure: NHA were incubated for 1 hour with probes before fixation. Fixation in buffered paraformaldehyde (PFA) was performed in two stages. Firstly, a 50-4 aliquot of ice-cold 8% PFA was added to each well, then gently aspirated and the wells were twice washed with ice-cold 2% PFA and then allowed to completely fix at 4° C. After fixation, cells were washed twice in 1×PBS (Thermo Fisher Scientific, Rockford, Ill., USA). The tanks were then removed from the slides, the well area covered with Fluoromount-G (SouthernBiotech, Ill., USA), cover-slipped and sealed with nail varnish.
For assay [4], the system named is normal human astrocytes (NHA). The note with it: 14.4 μM thimerosal, 1 hr, vs control (FIG. 21). The procedure:
as §3, §1, §2

Setting [5] is: 14.4 μM thimerosal, 1 hr, vs control (FIG. 21).

SMILES strings stand for the structures.

On to `C[CH2][Hg][S]c1ccccc1C(=O)[O-].[Na+]` [Thimerosal], for which the “increase in Caspase-3 activity” value in the assay on Caspase-3 is listed as “five-fold”. Besides, in assay [1] (setting [5]), the “increase in 3′OH DNA nicks” value was determined as 300%, the “increase in levels of mitochondrial DNA breaks” value was determined as 240% and the “increase in levels of oxidized bases/apurinic or apyrimidinic sites” value was 460%. In addition, the “increase in levels of oxidant damaged mitochondrial DNA bases” value in assay [1] (Thimerosal treatment) is recorded as “five-fold”. Further, in assay [2] (14.4 μM thimerosal, 1 hr), the “increase in HO. greater than the increase in superoxide generation” value is “≈ 80%” and the “increase in superoxide generation per cell” value worked out at 90%. Further, the “more HO. generation per superoxide” value in assay [2] (14.4 μM thimerosal, 1 hr, deconvolution of signals) came out at 60%. Moreover, in assay [2] (setting [5]), the “increase in HO.” value was determined as 300% and the “increase in internal mitochondrial steady state level of superoxide” value is “≈ 70%”. Besides, in assay [2] (60 min, 0-14.4 μM), the “thimerosal concentration at which a loss of mitochondrial signal and of DCF was observed” value was greater than 7.2 µM. The “time at which levels of cellular DCF began to fall” value in assay [3] was greater than 40 min. Moreover, the “amount of ROS (DCF) generated by mitochondria vs control mitochondria” value in assay [3] (60 min, fit of intensity profiles) is “four times”. The “increase in ROS (DCF)” value in assay [3] (60 min, vs control) is reported as “two-fold”. The “increase in steady-state production of reactive oxidants (H2DCF-AM)” value in assay [3] (1 hr, vs control) stood at 200%. Further, the “increase in cellular hydrazine reactive carbonyls (matches superoxide increase)” value in assay [4] is reported as “≈ 70%”.
